Reference: patent US8933142B2, “Low-extractable thioxanthones” (Lamberti Spa, priority 2010, dated 2015)

Test: Photo DSC reactivity in tripropylene glycol diacrylate
Conditions: 0.1% w/w compound, 0.1% w/w EDB, LED 400 nm, 24.3 mW/cm^2
Source text: Comparison of the reactivity of the 1 and 3 derivatives of thioxanthone by means of Photo DSC.
The compound of Example 1 (dodecyl 7-methyl-9-oxo-9H-thioxanthene-3-carboxylate) and the compound of Example 8 (dodecyl 7-methyl-9-oxo-9H-thioxanthene-1-carboxylate, comparative) were formulated and evaluated by PhotoDSC.
The compound of Example 5 (N,N-diisobutyl-7-methyl-9-oxo-9H-thioxanthene-3-carboxamide) and the compound of Example 7 (N,N-diisobutyl-7-methyl-9-oxo-9H-thioxanthene-1-carboxamide, comparative) were also formulated and compared by PhotoDSC.
The formulations were prepared dissolving in tripropylene glycol diacrylate the compounds described in the Examples 1, 8, 5 and 7 at a concentration of 0.1% w/w and EDB (Ethyl 4-dimethylamino-benzoate) at a concentration of 0.1% w/w.
About 1 mg of formulation (exactly weighted) was kept into a DSC aluminum panel and analyzed by a Mettler DSC1 calorimeter equipped with a 400 nm LED with a power of 450 mW. The LED was set in order to irradiate the formulation with an intensity of 24.3 mW/cm^2.
During the exposition to LED at 400 nm the heat developed from the polymerization of formulations prepared with the compounds described in the Examples 1, 8, 5 and 7 was recorded as peak height and peak area (ΔH). The peak height is proportional to the rate of polymerization: higher is the peak—faster is the polymerization.

Compared with `CCCCCCCCCCCCOC(=O)c1ccc2c(=O)c3cc(C)ccc3sc2c1` [Example 1, dodecyl-7-methyl-9-oxo-9H-thioxanthene-3-carboxylate], `CCCCCCCCCCCCOC(=O)c1cccc2sc3ccc(C)cc3c(=O)c12` [Example 8, dodecyl 7-methyl-9-oxo-9H-thioxanthene-1-carboxylate] is lower in Peak height: 58.9 W/g for the first, 38.4 W/g for the second.

Going from `Cc1ccc2sc3cc(C(=O)N(CC(C)C)CC(C)C)ccc3c(=O)c2c1` [Example 5, N,N-disobutyl 7-methyl-9-oxo-9H-thioxanthene-3-carboxamide] to `Cc1ccc2sc3cccc(C(=O)N(CC(C)C)CC(C)C)c3c(=O)c2c1` [Example 7, N,N-diisobutyl-7-methyl-9-oxo-9H-thioxanthene-1-carboxamide], the Peak height falls from 39.0 W/g to 11.1 W/g.

Compared with `CCCCCCCCCCCCOC(=O)c1ccc2c(=O)c3cc(C)ccc3sc2c1` [Example 1, dodecyl-7-methyl-9-oxo-9H-thioxanthene-3-carboxylate], `CCCCCCCCCCCCOC(=O)c1cccc2sc3ccc(C)cc3c(=O)c12` [Example 8, dodecyl 7-methyl-9-oxo-9H-thioxanthene-1-carboxylate] is lower in “ΔH (peak area)” value: 266.4 J/g for the first, 208.5 J/g for the second.

First: Cc1ccc2sc3cc(C(=O)N(CC(C)C)CC(C)C)ccc3c(=O)c2c1 [Example 5, N,N-disobutyl 7-methyl-9-oxo-9H-thioxanthene-3-carboxamide]
Second: Cc1ccc2sc3cccc(C(=O)N(CC(C)C)CC(C)C)c3c(=O)c2c1 [Example 7, N,N-diisobutyl-7-methyl-9-oxo-9H-thioxanthene-1-carboxamide]
The “ΔH (peak area)” value of the first is higher: 224.8 J/g for the first, 111.4 J/g for the second.

Same assay, conditions: Photo DSC peak area, isomer 3 versus isomer 1

For `CCCCCCCCCCCCOC(=O)c1ccc2c(=O)c3cc(C)ccc3sc2c1` [Example 1, dodecyl-7-methyl-9-oxo-9H-thioxanthene-3-carboxylate], the “ΔH of polymerization of isomer 3 relative to isomer 1” value was 1.2.

With `Cc1ccc2sc3cc(C(=O)N(CC(C)C)CC(C)C)ccc3c(=O)c2c1` [Example 5, N,N-disobutyl 7-methyl-9-oxo-9H-thioxanthene-3-carboxamide] the “ΔH of polymerization of isomer 3 relative to isomer 1” value was “about 2”.

Same assay, conditions: Photo DSC peak height, isomer 3 versus isomer 1

In the case of `CCCCCCCCCCCCOC(=O)c1ccc2c(=O)c3cc(C)ccc3sc2c1` [Example 1, dodecyl-7-methyl-9-oxo-9H-thioxanthene-3-carboxylate], the “Reactivity of isomer 3 relative to isomer 1” value was “about 1.5 times”.

With `Cc1ccc2sc3cc(C(=O)N(CC(C)C)CC(C)C)ccc3c(=O)c2c1` [Example 5, N,N-disobutyl 7-methyl-9-oxo-9H-thioxanthene-3-carboxamide] the “Reactivity of isomer 3 relative to isomer 1” value was 3.5 times.

Test: Through-cure (thumb twist test), as photoinitiator
Conditions: 3% thioxanthone derivative, 3% Esacure A 198, cyan ink, 3 μm on coated cardboard, Hg lamp 120 W/cm
Description: (§1) Evaluation of “Through-Cure”
(§2) The “through cure” test evaluates the degree of cross-linking of the deeper layers of the formulate (film) spread on the substrate. The film is considered completely crosslinked when it is not detached from the substrate or damaged by the “thumb twist test”. The test is carried out at various speeds of exposure to UV source. The higher the speed the higher the reactivity of the system.
(§3) The products described in the examples were tested both as photoinitiators and sensitizers. For the evaluation as photoinitiator the following formulation is employed (by weight): 3% of derivative of thioxanthone of formula I, 3% of Esacure A 198, up to 100% with cyan ink for off-set printing. For the evaluation as sensitizers the formulation is composed as follows (by weight): 0.5% of derivative of thioxanthone of formula I, 3% of Esacure A 198, 3% of Esacure 1001, up to 100% with cyan ink for off-set printing.
(§4) The resulting mixtures are milled with a three cylinders mill (laboratory scale) and applied on a coated cardboard with a thickness of 3 μm by means of film coater (RK Print Coater Instrument Ltd), then exposed at different speed to a mercury vapors lamp at high pressure 120 W/cm.
(§5) ITX, in the same amounts, is chosen as reference.

Going from `CCCCCCCCCCCCOC(=O)c1ccc2c(=O)c3cc(C)ccc3sc2c1` [Example 1, dodecyl-7-methyl-9-oxo-9H-thioxanthene-3-carboxylate] to `Cc1ccc2sc3cc(C(=O)N(CC(C)C)CC(C)C)ccc3c(=O)c2c1` [Example 5, N,N-disobutyl 7-methyl-9-oxo-9H-thioxanthene-3-carboxamide], the “Through-cure (photoinitiator)” value rises from 85 m/min to 90 m/min.

Test: FT-IR degree of polymerization in a pigmented photopolymerizable composition (as photoinitiator)
Conditions: 3% photoinitiator, 3% Esacure A198, cyan ink, 3 μm film, Hg/Xe lamp 120 W/cm; 1 sec
Description: Evaluation of the Derivatives of Thioxanthone in a Pigmented Photopolymerizable Composition by Means of FT-IR.
Pigmented photopolymerizable compositions are prepared by mixing 3% by weight of both the photoinitiators of formula I (Examples 1-6) and the coinitiator Esacure A198 (bis-N,N-[4-dimethyl aminobenzoyl)oxyethylen-1-yl]-methylamine), commercialized by Lamberti S.p.A, and up to 100% by weight of a cyan ink for off-set inking.
Isopropyl thioxanthone (ITX) is chosen as reference photoinitiator.
The photopolymerizable compositions are milled with a three cylinders mill (laboratory scale) in order to homogenize the mix and applied with a thickness of 3 μm on a soft polyethylene substrate by means of a film coater (RK Print Coater Instrument Ltd).
The sample, placed in the sample lodgment of a FT-IR (FT-IR 430-Jasco), is exposed to a Mercury/Xenon Vapors light source at high pressure to 120 W/cm (L8868 Light-cure, Hamamatsu) set at a distance of 8 cm from the sample and at an angle of 30°.
IR spectra are acquired at constant time intervals during the photopolymerization and the reduction over time of the peak area at 1408 cm^−1 assigned to the acrylic double bond was determined by IR software (Perkin Elmer, Spectrum ONE v. 2.0). This allows to quantify the degree of polymerization over the time and therefore the efficiency of the photoinitiator.

Compared with `CCCCCCCCCCCCOC(=O)c1ccc2c(=O)c3cc(C)ccc3sc2c1` [Example 1, dodecyl-7-methyl-9-oxo-9H-thioxanthene-3-carboxylate], `Cc1ccc2sc3cc(C(=O)N(CC(C)C)CC(C)C)ccc3c(=O)c2c1` [Example 5, N,N-disobutyl 7-methyl-9-oxo-9H-thioxanthene-3-carboxamide] is lower in “% degree of polymerization after 1 sec” value: 19.6% for the first, 18.0% for the second.

Same assay, conditions: 3% photoinitiator, 3% Esacure A198, cyan ink, 3 μm film, Hg/Xe lamp 120 W/cm; 2 sec

First: CCCCCCCCCCCCOC(=O)c1ccc2c(=O)c3cc(C)ccc3sc2c1 [Example 1, dodecyl-7-methyl-9-oxo-9H-thioxanthene-3-carboxylate]
Second: Cc1ccc2sc3cc(C(=O)N(CC(C)C)CC(C)C)ccc3c(=O)c2c1 [Example 5, N,N-disobutyl 7-methyl-9-oxo-9H-thioxanthene-3-carboxamide]
The “% degree of polymerization after 2 sec” value of the first is higher: 36.1% for the first, 33.7% for the second.

Same assay, conditions: 3% photoinitiator, 3% Esacure A198, cyan ink, 3 μm film, Hg/Xe lamp 120 W/cm; 5 sec

First: CCCCCCCCCCCCOC(=O)c1ccc2c(=O)c3cc(C)ccc3sc2c1 [Example 1, dodecyl-7-methyl-9-oxo-9H-thioxanthene-3-carboxylate]
Second: Cc1ccc2sc3cc(C(=O)N(CC(C)C)CC(C)C)ccc3c(=O)c2c1 [Example 5, N,N-disobutyl 7-methyl-9-oxo-9H-thioxanthene-3-carboxamide]
The “% degree of polymerization after 5 sec” value of the first is higher: 47.2% for the first, 45.9% for the second.

Test: FT-IR degree of polymerization in a pigmented composition (as sensitizer of Esacure 1001)
Conditions: 0.5% sensitizer, 3% Esacure 1001, 3% Esacure A 198, cyan ink, 3 μm film; 1 sec
Description: The compounds described in the examples were evaluated also as sensitizer in a pigmented composition as described below.
Pigmented photopolymerizable compositions are prepared by mixing 3% by weight of both Esacure 1001 and coinitiator Esacure A 198 (both commercialized by Lamberti S.p.A.), 0.5% by weight of derivatives of thioxanthone of the Examples listed in Table 1 and up to 100% by weight of a cyan ink for off-set inking. ITX is used as reference sensitizer.
The photopolymerizable compositions are milled with a three cylinders mill (laboratory scale) in order to homogenize the mix and applied with a thickness of 3 μm on a soft polyethylene substrate by means of film coater (RK Print Coater Instrument Ltd).
The sample, placed in the sample lodgment of a FT-IR (FT-IR 430-Jasco), is exposed to a Mercury/Xenon Vapors light source at high pressure to 120 W/cm (L8868 Light-cure, Hamamatsu) set at a distance of 8 cm from the sample with an angle of 30°.
IR spectra were acquired at constant time during the photopolymerization and the reduction over the time of the area of the peak at 1408 cm^−1 assigned to the acrylic double bond is determined with the help of a IR software (Perkin Elmer, Spectrum ONE v. 2.0).
This allows to quantify the degree of polymerization over time and therefore the efficiency of the photoinitiator.

Going from `CCCCCCCCCCCCOC(=O)c1ccc2c(=O)c3cc(C)ccc3sc2c1` [Example 1, dodecyl-7-methyl-9-oxo-9H-thioxanthene-3-carboxylate] to `Cc1ccc2sc3cc(C(=O)N(CC(C)C)CC(C)C)ccc3c(=O)c2c1` [Example 5, N,N-disobutyl 7-methyl-9-oxo-9H-thioxanthene-3-carboxamide], the “% degree of polymerization after 1 sec” value rises from 17.8% to 22.3%.

Same assay, conditions: 0.5% sensitizer, 3% Esacure 1001, 3% Esacure A 198, cyan ink, 3 μm film; 2 sec

First: CCCCCCCCCCCCOC(=O)c1ccc2c(=O)c3cc(C)ccc3sc2c1 [Example 1, dodecyl-7-methyl-9-oxo-9H-thioxanthene-3-carboxylate]
Second: Cc1ccc2sc3cc(C(=O)N(CC(C)C)CC(C)C)ccc3c(=O)c2c1 [Example 5, N,N-disobutyl 7-methyl-9-oxo-9H-thioxanthene-3-carboxamide]
The “% degree of polymerization after 2 sec” value of the first is lower: 29.9% for the first, 36.7% for the second.

Same assay, conditions: 0.5% sensitizer, 3% Esacure 1001, 3% Esacure A 198, cyan ink, 3 μm film; 5 sec

First: CCCCCCCCCCCCOC(=O)c1ccc2c(=O)c3cc(C)ccc3sc2c1 [Example 1, dodecyl-7-methyl-9-oxo-9H-thioxanthene-3-carboxylate]
Second: Cc1ccc2sc3cc(C(=O)N(CC(C)C)CC(C)C)ccc3c(=O)c2c1 [Example 5, N,N-disobutyl 7-methyl-9-oxo-9H-thioxanthene-3-carboxamide]
The “% degree of polymerization after 5 sec” value of the first is lower: 40.7% for the first, 45.8% for the second.

Test: Formulability through solubility in methylene chloride
Conditions: room temperature, stirring
Description: 10 g of the thioxanthone derivatives under investigation are weighed and suspended in the same amount of solvent; the mixture is maintained under stirring at room temperature.
After 2 min the clearness of the solution is evaluated: if the sample is not dissolved further aliquots of solvent are added, keeping the mixture under stirring for two min after each addition until complete solubilization.

Compared with `CCCCCCCCCCCCOC(=O)c1ccc2c(=O)c3cc(C)ccc3sc2c1` [Example 1, dodecyl-7-methyl-9-oxo-9H-thioxanthene-3-carboxylate], `Cc1ccc2sc3cc(C(=O)N(CC(C)C)CC(C)C)ccc3c(=O)c2c1` [Example 5, N,N-disobutyl 7-methyl-9-oxo-9H-thioxanthene-3-carboxamide] is higher in Solubility: 33% for the first, 50% for the second.

Test: Through-cure (thumb twist test), as sensitizer
Conditions: 0.5% thioxanthone derivative, 3% Esacure A 198, 3% Esacure 1001, cyan ink, 3 μm on coated cardboard, Hg lamp 120 W/cm
Description: as §1, §2, §3, §4, §5

Going from `CCCCCCCCCCCCOC(=O)c1ccc2c(=O)c3cc(C)ccc3sc2c1` [Example 1, dodecyl-7-methyl-9-oxo-9H-thioxanthene-3-carboxylate] to `Cc1ccc2sc3cc(C(=O)N(CC(C)C)CC(C)C)ccc3c(=O)c2c1` [Example 5, N,N-disobutyl 7-methyl-9-oxo-9H-thioxanthene-3-carboxamide], the “Through-cure (sensitizer)” value rises from 53 m/min to 60 m/min.
